Source: US20060074047A1, “Method of treating inflammation with inhibitors of sialyl transferases” (priority 2004, published 2006)
“Also recorded” adds a separate entry of the source.

Legend:
[1] = test system: endogenous sialyltransferase activity of human polymorphonuclear leukocytes; assay: Sialyltransferase assay (flow cytometry), intact PMNs as endogenous ST source; format: cell-based
From the text: (§1) For the study of PMN ST activity, a previously described ST assay was adapted in which CMP-5-NANA served as the labeled sialyl residue donor and neuraminidase-treated RBCs as the sialyl residue acceptor (7). Based on preliminary studies, a standard reaction mixture contained a sialyl residue acceptor, either RBCs or polymorphonuclear leukocytes, CMP-5-NANA and a ST source. Purified α2,6-ST at a final concentration of 0.5 nU/ml, or polymorphonuclear leukocytes as an endogenous source of ST activity were used in a final volume of 100 μl cell incubation buffer (CIB) containing PBS plus 5 mg/ml BSA, pH 6.8. Sialyl residue acceptor SRBCs and polymorphonuclear leukocytes were desialylated with 25 mU/ml NANase/1-2×10^8/cells in 1 ml of CIB for 1 h at 37° C., washed once in CIB and used at 4×10^6 cells or at 8×10^6 cells respectively in a volume of 40 μl. When used as an endogenous source of ST activity, human polymorphonuclear leukocytes were adjusted to a stock concentration of 1×10^8 PMN/ml, lysed by freeze/thawing, centrifuged, and the protein concentration of the supernatant determined (Bio-Rad Laboratories, Hercules, Calif.). Intact human polymorphonuclear leukocytes at 8×10^6/0.1 ml assay volume were also used both as a source of ST activity as well as an acceptor of sialyl residues.
After gentle mixing, all tubes were incubated for 2 h at 37° C. in a humidified atmosphere containing 5% CO2. The cells were washed, pelleted and resuspended in CIB and analyzed fluorocytometrically on a FACScan II (Becton-Dickinson, Mountain View, Calif.). Based on forward and right angle light scatter properties, an electronic gate was placed around the RBCs or polymorphonuclear leukocytes which were excited at […] and emission measured at 530 nm. At least 10,000 events were recorded per condition. Data was analyzed with a CellQuest analysis program.
For each experiment, controls included omission of each of the components of the assay mixture, i.e., ST source, CMP-5 NANA or sialyl residue acceptor) as well as boiled, exogenous α2,6 ST. When indicated, 2-DN (0.04 mM, final concentration), an inhibitor of sialidase activity (8) was introduced to prevent the possible removal of the transferred sialyl residues. ST activity was measured after subtraction of background fluorescence, i.e., complete assay mixture minus either the exogenous ST or, for endogenous ST, in the presence and absence of the ST inhibitor, CMP (0.3 mM final concentration) and was expressed as % of maximal activity. For experiments in which it was estimated the endogenous ST activity, a standard curve was constructed using serial 2-fold dilutions of purified α2-6 ST enzyme from which tissue ST activity was interpolated, and expressed the ST activity as nU per μg protein.

[2] = test system: polymorphonuclear leukocytes adhering to human microvascular endothelial cells (HMVEC); assay: Adherence of resting PMNs to LPS-activated endothelial cells; format: cell-based; details: CMP 2.5 mM for 5 minutes prior to stimulation; LPS 100 ng/ml for 4 hrs; FIG. 5
Method: In contrast, when the human microvascular endothelial cells, HMVECs, are treated with lipopolysaccharide, LPS, (100 ng/ml for 4 hrs) to activate them, resting polymorphonuclear leukocytes adhere better to the HMVECs. […] When polymorphonuclear leukocytes are activated with the tetrapeptide FMLP (1×10^−7 M/cyt b for 5 min.) they adhere better than do resting polymorphonuclear leukocytes (FIG. 5). At this later stage of PMN-EC interaction, sialyltransferase doesn't play a role. It is contemplated that CMP appears to work by inhibiting the initial binding of non-activated polymorphonuclear leukocytes to the ECs and also works at the late stage where polymorphonuclear leukocytes that have migrated through the EC monolayer are unable to move further to the inflammatory nidus.

[3] = test system: polymorphonuclear leukocytes in the peritoneal fluid; assay: In vivo IL-8 recruitment of PMNs to the peritoneal fluid; details: mice; CMP intravenously 30 min before and 1 hr after IL-8 (150 ng/ml) intraperitoneally; counted at 2 hrs
Method: Mice are pre-treated intravenously with different doses of CMP 30 minutes before giving IL-8 (150 ng/ml) intraperitoneally to recruit polymorphonuclear leukocytes. This is followed with another dose of CMP one hr after the IL-8. Polymorphonuclear leukocytes in the peritoneal fluid of these mice are counted at 2 hrs after the IL-8, i.e., one hr after the second dose of CMP. The total polymorphonuclear leukocytes in the perioneal fluid of mice treated with CMP is compared with those given an equal volume of saline. It is contemplated that those receiving the CMP will have a lower number of polymorphonuclear leukocytes in the perioneal fluid.

[4] = target: α2,6 sialyltransferase (Photobacterium damselae, UniProt O66375); assay: Sialyltransferase assay (flow cytometry), exogenous ST with PMNs as sialyl residue acceptors; format: cell-based, bacterial; details: 0.3 mM CMP
From the text: as §1, with “Sialyl residue acceptor SRBCs and polymorphonuclear leukocytes were desialylated with 25 mU/ml NANase/1-2×10^8/cells in 1 ml of CIB for 1 h at 37° C., washed once in CIB and used at 4×10^6 cells or at 8×10^6 cells respectively in a volume of 40 μl.” left out, “Intact human polymorphonuclear leukocytes at 8×10^6/0.1 ml assay volume were also used both as a source of ST activity as well as an acceptor of sialyl residues.” left out
After gentle mixing, all tubes were incubated for 2 h at 37° C. in a humidified atmosphere containing 5% CO2. The cells were washed, pelleted and resuspended in CIB and analyzed fluorocytometrically on a FACScan II (Becton-Dickinson, Mountain View, Calif.). Based on forward and right angle light scatter properties, an electronic gate was placed around the RBCs or polymorphonuclear leukocytes which were excited at […] and emission measured at 530 nm. At least 10,000 events were recorded per condition. […]

[5] = test system: human polymorphonuclear leukocytes migrating across human pulmonary artery endothelial cells (HPAEC); assay: Transendothelial migration of PMNs across HPAEC monolayers in response to IL-8; format: cell-based; details: 0.3 mM CMP; TNF-treated HPAEC monolayers, IL-8 150 ng/ml, 2 h; p<0.03
Method: FIG. 4 depicts inhibition of transendothelial cell migration by an ST inhibitor, cytidine monophosphate (CMP). Calcein AM-labeled human polymorphonuclear leukocytes were added to human pulmonary artery endothelial cells (HPAEC) pre-treated for 4 hrs with rTNF (50 U/ml). TEM was measured in response to IL-8 (150 ng/ml) over 2 hr as previously described (6) in the absence and presence of 0.3 mM CMP. 4 chambers/variable were studied. This figure is representative of 3 independent experiments.
The ability of human polymorphonuclear leukocytes to migrate across human pulmonary artery endothelial cell (HPAEC) monolayers in response to a chemotactic stimulus (IL-8) was measured as previously described (6). Only EC monolayers retaining […] of a ^14C-bovine serum albumen tracer were studied (i.e. no loss of barrier function). After treatment of HPAECs for 4 h with 25 U/ml TNFr, calcein AM (Molecular Probes, Eugene, Oreg.)-labeled human polymorphonuclear leukocytes (5×10^5 cells/well) were introduced into the upper compartments of the assay chambers, incubated for 2 h at 37° C., after which time each lower compartment was sampled and fluorometrically assayed. A standard curve was established for each experiment from which polymorphonuclear leukocyte numbers could be interpolated from fluorescence units and PMN TEM was expressed as % migration.

[6] = test system: polymorphonuclear leukocytes; assay: Preliminary tests of CMP toxicity to PMNs; format: cell-based, human; details: 0.3 mM CMP

α2,6 sialyltransferase, sequence (O66375 entry or part of it): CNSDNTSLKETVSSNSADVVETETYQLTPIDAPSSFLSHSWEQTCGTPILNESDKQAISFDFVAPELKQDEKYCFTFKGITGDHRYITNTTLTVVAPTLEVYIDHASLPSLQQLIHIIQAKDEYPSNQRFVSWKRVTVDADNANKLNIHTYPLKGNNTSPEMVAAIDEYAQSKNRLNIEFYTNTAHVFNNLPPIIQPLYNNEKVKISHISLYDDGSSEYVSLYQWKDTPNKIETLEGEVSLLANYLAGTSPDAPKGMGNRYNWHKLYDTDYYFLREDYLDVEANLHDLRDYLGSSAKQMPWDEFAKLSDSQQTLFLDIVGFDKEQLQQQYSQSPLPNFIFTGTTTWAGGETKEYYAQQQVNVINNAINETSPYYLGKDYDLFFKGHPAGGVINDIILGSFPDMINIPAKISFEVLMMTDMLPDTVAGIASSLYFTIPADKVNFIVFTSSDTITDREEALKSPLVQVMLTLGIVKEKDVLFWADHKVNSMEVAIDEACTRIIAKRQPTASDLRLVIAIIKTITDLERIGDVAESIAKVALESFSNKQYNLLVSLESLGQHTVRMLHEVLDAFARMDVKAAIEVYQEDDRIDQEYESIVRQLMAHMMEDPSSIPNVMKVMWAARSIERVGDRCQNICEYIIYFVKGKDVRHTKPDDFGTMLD

| Compound | MFI (ST activity) in presence of sialidase inhibitor 2-DN ([1]; FIG. 3B: intact untreated PMNs, 2-DN 0.04 mM final concentration, MFI 364 without 2-DN) | adherence of resting PMNs to LPS-treated HMVECs [2] | number of polymorphonuclear leukocytes in the peritoneal fluid vs saline [3] | MFI (mean fluorescence intensity) with CMP ([4]; FIG. 2A: neuraminidase-pretreated PMNs + exogenous sialyltransferase, MFI 406 without CMP) | MFI (mean fluorescence intensity) with CMP ([4]; FIG. 2B: PMNs unexposed to neuraminidase + exogenous sialyltransferase, MFI 310 without CMP) | inhibition of ST activity in vitro ([1]; 0.3 mM CMP, preliminary tests) | MFI (mean fluorescence intensity) with CMP ([1]; FIG. 2C: neuraminidase-pretreated PMNs + intact untreated PMNs as endogenous ST source, 0.3 mM CMP, MFI 295 without CMP) | MFI (mean fluorescence intensity) with CMP ([1]; FIG. 2D: intact untreated PMNs added to PMNs not exposed to neuraminidase, 0.3 mM CMP, MFI 266 without CMP) | mean fluorescence intensity (MFI) after CMP treatment ([1]; FIG. 3A: PMNs (8×10^6), 10 μM CMP-NANA, 0.3 mM CMP, MFI 364 without CMP) | inhibition of TEM (transendothelial migration) [5] [%] | toxicity to the polymorphonuclear leukocytes [6] |
| --- | --- | --- | --- | --- | --- | --- | --- | --- | --- | --- | --- |
| CC(=O)N[C@H]1[C@H]([C@H](O)[C@H](O)CO)OC(C(=O)O)=C[C@@H]1O [2-DN, 2,3 deoxy-N-acetyl neuraminic acid] | 317 |  |  |  |  |  |  |  |  |  |  |
| Nc1ccn([C@@H]2O[C@H](COP(=O)(O)O)[C@@H](O)[C@H]2O)c(=O)n1 [CMP, cytidine 5′-monophosphate] |  | inhibits the initial binding; also recorded: decreased adherence | lower number | 165 | 167 | fully inhibited | 141 | 131 | 222 | > 40 | not toxic |
